Results published in PubChem BioAssay AID1996.
Converted amounts (≈) assume the structure as drawn.

conditions: buffer; pH 7.4; 200.0 µM

First: CC(NC(=O)COC(=O)/C=C/c1cccc(F)c1)c1ccccc1 (centres undefined)
Second: Cc1ccc(OCCC(=O)OCC(=O)Nc2ccccc2)cc1
The solubility kinetic of the first is 2.7-fold lower: 6.1 µg/mL (≈ 18.6 µM) for the first, 16.5 µg/mL (≈ 52.7 µM) for the second.

Compared with `CCOC(=O)c1c(NCCN(C)C)c2ccccc2[nH]c1=O`, `Cc1[nH]c2ccccc2c1C(=O)CCl` is lower in solubility kinetic: greater than 45.5 µg/mL for the first, 12.1 µg/mL (≈ 58.3 µM) for the second.

Compared with `CCN(C(=O)Cn1c([N+](=O)[O-])cnc1C)c1ccccc1`, `Cc1cnc(NC(=O)Nc2ccccc2)c(C)n1` is lower in solubility kinetic: greater than 43.2 µg/mL for the first, 32 µg/mL (≈ 132 µM) for the second.

Going from `N#CCc1nc2ccc(S(=O)(=O)N3CCOCC3)cc2s1` to `O=C(c1cccc(S(=O)(=O)NCc2ccccc2)c1)N1CCN(c2ccccc2)CC1`, the solubility kinetic falls from 37.2 µg/mL (≈ 115 µM) to 2.4 µg/mL (≈ 5.51 µM) (16-fold).

First: COc1ccc(/C=C/C(=O)OCC(=O)N(C)CC(=O)Nc2ccc(C)cc2)c(OC)c1
Second: CN(Cc1ccccc1)C(=O)COC(=O)COc1ccc(C#N)cc1
The solubility kinetic of the first is lower: 4.4 µg/mL (≈ 10.3 µM) for the first, greater than 50.8 µg/mL for the second.

`CO/N=C/C(NC(=O)c1ccc(C(F)(F)F)cc1)C(=O)OC` (centres undefined) and `O=C(COC(=O)CCC(=O)c1cccs1)Nc1ccccc1C(F)(F)F` cannot be ordered by solubility kinetic: greater than 47.7 µg/mL for the first, greater than 57.8 µg/mL for the second.

First: O=C(c1ccccc1)c1c[nH]c2ccccc12
Second: O=C(CCc1c[nH]c2ccccc12)NCCc1ccccc1
The solubility kinetic of the first is 15-fold lower: 1.9 µg/mL (≈ 8.59 µM) for the first, 28.5 µg/mL (≈ 97.5 µM) for the second.

Going from `COc1cc(NC(=O)C(Cc2ccccc2)n2cccc2)cc(OC)c1` (centres undefined) to `CCOC(=O)C1(Cc2ccccc2)C(=O)Nc2ccccc21` (centres undefined), the solubility kinetic rises from 16.3 µg/mL (≈ 46.5 µM) to 37.1 µg/mL (≈ 126 µM) (2.3-fold).

Compared with `O=C(Nc1cccc2c1CCCC2)c1cccc(F)c1`, `Cc1ccccc1NC(=O)c1cc2ccccc2o1` is higher in solubility kinetic: less than 0.6 µg/mL for the first, 33.7 µg/mL (≈ 134 µM) for the second.

First: c1ccc(CCn2cnc3ccccc32)cc1
Second: [Cl-].c1ccc(CNc2cccc[nH+]2)cc1
The solubility kinetic of the first is lower: 29.3 µg/mL (≈ 132 µM) for the first, greater than 33.1 µg/mL for the second.

`COc1ccc(NC(=O)Nc2cnccn2)cc1OC` and `COc1ccc(CCC(=O)Nc2nccs2)cc1OC` cannot be ordered by solubility kinetic: greater than 41.1 µg/mL for the first, greater than 43.9 µg/mL for the second.

Compared with `S=C1SCN(Cc2cccnc2)CN1Cc1cccnc1`, `Cc1ccc2c(CN3CCN(Cc4ccccc4)CC3)cc(=O)oc2c1C` is lower in solubility kinetic: greater than 47.5 µg/mL for the first, 25.4 µg/mL (≈ 70.1 µM) for the second.

Compared with `COc1ccc2cc(Br)ccc2c1CC(=O)N(C)C`, `Cc1ccc(CNC(=S)N(C)C)cc1` is higher in solubility kinetic: 21.1 µg/mL (≈ 65.5 µM) for the first, greater than 31.2 µg/mL for the second.

Compared with `COc1ccccc1NC(=O)/C(=C/c1ccncc1)NC(=O)c1ccccc1`, `O=C(CCCN1C(=O)/C(=C\c2ccccc2)SC1=S)Nc1ccccc1O` is lower in solubility kinetic: 22.2 µg/mL (≈ 59.5 µM) for the first, less than 0.4 µg/mL for the second.

First: O=C(COc1cccnc1[N+](=O)[O-])Nc1cc(Cl)ccc1Cl
Second: O=C(Cc1cccs1)NCc1ccc(Cl)cc1Cl
The solubility kinetic of the first is 4.5-fold lower: 2.9 µg/mL (≈ 8.48 µM) for the first, 13.1 µg/mL (≈ 43.6 µM) for the second.

`Cc1ccc(C)c(NCC(O)c2ccccc2)c1` (centres undefined) and `Cc1ccc(Cn2ccccc2=N)cc1.Cl` cannot be ordered by solubility kinetic: greater than 36.2 µg/mL for the first, greater than 35.2 µg/mL for the second.

First: CC1CNCCN1S(=O)(=O)c1cccc2cnccc12.Cl (centres undefined)
Second: O=S(=O)(Cc1ccco1)Cc1nc(-c2ccc(Cl)cc2)cs1
The solubility kinetic of the first is higher: greater than 54.6 µg/mL for the first, 0.9 µg/mL (≈ 2.54 µM) for the second.

Going from `COc1ccc(Nc2cc(Nc3ccccc3)ncn2)cc1` to `COc1ccc2ccc(O)c(CN3CC=C(c4ccccc4)CC3)c2c1`, the solubility kinetic rises from less than 0.2 µg/mL to 1.6 µg/mL (≈ 4.63 µM).

First: C[N+]1(C)CCc2cc3c(cc2[C@H]1[C@@H]1OC(=O)c2c1ccc1c2OCO1)OCO3.[I-]
Second: CN1C(=O)c2ccccc2C(O)c2ccccc21 (centres undefined)
The solubility kinetic of the first is higher: greater than 76.4 µg/mL for the first, 31.8 µg/mL (≈ 133 µM) for the second.

First: CCCCn1c(=O)c(C(=O)Nc2ccc(C)cn2)c(O)c2ccccc21
Second: Cn1c(CNC(=O)c2ccccc2F)cc2ccccc21
The solubility kinetic of the first is lower: less than 0.3 µg/mL for the first, 10.1 µg/mL (≈ 35.8 µM) for the second.

First: O=[N+]([O-])c1ccc(N2CCN(c3ccccn3)CC2)c(Cl)c1
Second: Cn1cccc1C(=O)NCc1ccccn1
The solubility kinetic of the first is lower: 0.8 µg/mL (≈ 2.51 µM) for the first, greater than 32.3 µg/mL for the second.

`O=C(CCC1CCCCC1)NCCN1CCOCC1` and `CCOCCCNc1ccc(N2C(=O)CCCC2=O)cc1[N+](=O)[O-]` cannot be ordered by solubility kinetic: greater than 40.3 µg/mL for the first, greater than 50.3 µg/mL for the second.

`Cc1ccc(C(=O)NCC(=O)NCc2ccc(Cl)cc2)s1` and `Oc1ccc(-c2nc3ccccc3s2)cc1` are within 1.5-fold of each other in solubility kinetic: 7.4 µg/mL (≈ 22.9 µM) for the first, 6.6 µg/mL (≈ 29 µM) for the second.

`Cc1sc2nc(C)n(/N=C/N(C)C)c(=O)c2c1C` and `CCN(CC)P(=O)(c1ccccc1)c1c(C)nc2ccccn12` (centres undefined) cannot be ordered by solubility kinetic: greater than 39.7 µg/mL for the first, greater than 49.1 µg/mL for the second.

`CCCSc1nsc(NC(=O)c2cccnc2OCC)n1` showed a solubility kinetic of 0.5 µg/mL (≈ 1.54 µM).
